Measurements from US8575189B2, “Tacrolimus preparation for external applications” (Takata Seiyaku Co., Ltd., priority 2008, dated 2013).

Experiment: Solubility of tacrolimus in triacetin
Format: physicochemical
Conditions: free form, in triacetin at 25° C.
Description: [drawing 2] (chemical name: glycerin triacetate). The properties of triacetin are described in Iyakuhin Tenkabutsu Kikaku 2003 and Iyakuhin Tenkabutsu Jiten 2007 (Yakuji Nippo), which are incorporated herein by reference. Tacrolimus in a free form may dissolve in triacetin at 25° C. in the ratio of about 12.5 g/100 g. Preferably, the external preparation of the present invention comprises triacetin at 0.1 to 30% by weight, more preferably 1.0 to 20% by weight, still more preferably 3.0 to 6.0% by weight, most preferably 4.0 to 5.0% by weight for the total amount of the preparation.

dissolve in triacetin (ratio): about 12.5 g/100 g
Substance: 17-aryl-1,14-dihydroxy-12-[2-(4-hydroxy-3-methoxycyclohexyl)-1-methylbinyl]-23,25-dimethoxy-13,19,21,27-tetramethyl-11,28-dioxa-4-azatricyclo [22.3.1.04, 9] octacos-18-en-2,3,10,16-tetraone [Tacrolimus]
